Values quoted from earlier work as cited in patent US20090233811A1, “Manufacture of Array Chips” (Randox Laboratories Ltd., priority 2005, published 2009).

Details: data from Sigma-Aldrich Handbook of Stains, Dyes and Indicators

Row | Structure (SMILES) | Solubility in water
1 | CC(=O)Nc1cc(S(=O)(=O)[O-])cc2cc(S(=O)(=O)[O-])c(/N=N/c3ccccc3)c(O)c12.[Na+].[Na+] [Acid Red 1] | 60 mg/mL
2 | O=S(=O)([O-])c1cc(S(=O)(=O)[O-])c2c(N=Nc3ccc(N=Nc4ccccc4)cc3)c(O)ccc2c1.[Na+].[Na+] [Brilliant Crocein MOO] | 50 mg/mL
3 | O=S(=O)([O-])c1cc(/N=N/c2ccc(O)cc2)ccc1C=Cc1ccc(/N=N/c2ccc(O)cc2)cc1S(=O)(=O)[O-].[Na+].[Na+] [Brilliant Yellow] | 1 mg/mL
4 | O=S(=O)([O-])c1cc(O)c2c(O)c(N=Nc3ccccc3)c(S(=O)(=O)[O-])cc2c1.[Na+].[Na+] [Chromotrope 2R] | 200 mg/mL
5 | O=S(=O)([O-])c1ccc2c(/N=N/c3ccccc3)c(O)ccc2c1.[Na+] [Crocein Orange] | 40 mg/mL
6 | O=C([O-])C1=NN(c2ccc(S(=O)(=O)[O-])cc2)C(=O)C1N=Nc1ccc(S(=O)(=O)[O-])cc1.[Na+].[Na+].[Na+] (stereo not drawn) [Tartrazine] | 300 mg/mL
